Measurements as given in ChEMBL document CHEMBL1201862, “PubChem BioAssay data set” (2004).
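Five compound concentrations were applied to cells in 96-well plates for 48 hours; endpoints were derived by simple linear interpolation of the resulting dose-response curve. The concentration for 50% growth inhibition is given as GI50.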 The source made the active and inactive calls. Rule as the data show it: active = GI50 up to about 1.1 µM and inactive = higher.

Columns and labels:
Assay in all cases: NCI anticancer screen, dose series, 48 h
[1] = test system: Malme-3M
[2] = test system: OVCAR-3
[3] = test system: RPMI-8226
[4] = test system: SK-MEL-2
[5] = test system: SK-MEL-5
[6] = test system: SK-MEL-28
[7] = test system: DMS-114
[8] = test system: KM-20L2
[9] = test system: K562
[10] = test system: HCT-116
[11] = test system: M19-MEL
[12] = test system: HCT-15
[13] = test system: SF-295
[14] = test system: HOP-62
[15] = test system: UACC-62
[16] = test system: OVCAR-8
[17] = test system: SF-539
[18] = test system: NCI-H460
[19] = test system: CAKI-1
[20] = test system: NCI-H226
[21] = test system: ACHN
[22] = test system: EKVX
[23] = test system: HCC 2998
[24] = test system: DLD-1
[25] = test system: DMS-273
[26] = test system: IGROV-1
[27] = test system: KM12
[28] = test system: 786-0
[29] = test system: RXF 393
[30] = test system: TK-10
[31] = test system: M14
[32] = test system: SW-620
[33] = test system: CCRF-CEM
[34] = test system: HT-29
[35] = test system: XF498
[36] = test system: RXF 631
[37] = test system: UACC-257
[38] = test system: MOLT-4
[39] = test system: A498
[40] = test system: U-251
[41] = test system: OVCAR-4
[42] = test system: HL-60
[43] = test system: SNB-78
[44] = test system: LXFL 529
[45] = test system: SNB-75
[46] = test system: OVCAR-5
[47] = test system: SK-OV-3
[48] = test system: UO-31
[49] = test system: NCI-H23
[50] = test system: A549
[51] = test system: COLO 205
[52] = test system: SNB-19
[53] = test system: HOP-92
[54] = test system: SN12C
[55] = test system: SF-268
[56] = test system: SR
[57] = test system: LOX IMVI
[58] = test system: HOP-18
[59] = test system: NCI-H522

CCOC(=O)c1cccc(=O)c(C(=O)OCC)c1
GI50 [1]: 66.1 µM (inactive)
GI50 [2]: 31.3 µM (inactive)
GI50 [3]: 29.3 µM (inactive)
GI50 [4]: 47 µM (inactive)
GI50 [5]: 47.8 µM (inactive)
GI50 [6]: 38.6 µM (inactive)
GI50 [7]: 46.8 µM (inactive)
GI50 [8]: 97.3 µM (inactive)
GI50 [9]: 36.1 µM (inactive)
GI50 [10]: 28.4 µM (inactive)
GI50 [11]: 53.1 µM (inactive)
GI50 [12]: 40.3 µM
GI50 [13]: 2.38 µM (inactive)
GI50 [14]: 33.3 µM (inactive)
GI50 [15]: 34 µM (inactive)
GI50 [16]: 43.4 µM (inactive)
GI50 [17]: 26.1 µM (inactive)
GI50 [18]: 80 µM (inactive)
GI50 [19]: 77.3 µM (inactive)
GI50 [20]: 19.1 µM (inactive)
GI50 [21]: 63.7 µM (inactive)
GI50 [22]: > 100 µM (inactive)
GI50 [23]: > 100 µM (inactive)
GI50 [24]: 40 µM (inactive)
GI50 [25]: 48.2 µM (inactive)
GI50 [26]: 74 µM (inactive)
GI50 [27]: 3.27 µM (inactive)
GI50 [28]: 63.2 µM (inactive)
GI50 [29]: 36.2 µM (inactive)
GI50 [30]: > 100 µM (inactive)
GI50 [31]: 81.3 µM (inactive)
GI50 [32]: 50.2 µM (inactive)
GI50 [33]: 27.2 µM (inactive)
GI50 [34]: 58.2 µM (inactive)
GI50 [35]: 46.1 µM (inactive)
GI50 [36]: 67 µM (inactive)
GI50 [37]: 57.8 µM (inactive)
GI50 [38]: 35.7 µM (inactive)
GI50 [39]: > 100 µM (inactive)
GI50 [40]: 32.4 µM (inactive)
GI50 [41]: 48.1 µM (inactive)
GI50 [42]: 26.6 µM (inactive)
GI50 [43]: 57.3 µM (inactive)
GI50 [44]: 38.3 µM (inactive)
GI50 [45]: 56.9 µM (inactive)
GI50 [46]: > 100 µM (inactive)
GI50 [47]: > 100 µM (inactive)
GI50 [48]: 29.4 µM (inactive)
GI50 [49]: 44 µM (inactive)
GI50 [50]: 46.9 µM (inactive)

Cc1ccc(C)c(NC(=O)C(=O)C(C2C(C)CC(=O)C2CC(=O)O)[N+](=O)[O-])c1 (stereo not drawn)
GI50 [51]: > 100 µM (inactive)
GI50 [1]: > 100 µM (inactive)
GI50 [52]: > 100 µM (inactive)
GI50 [2]: > 100 µM (inactive)
GI50 [3]: > 100 µM (inactive)
GI50 [4]: > 100 µM (inactive)
GI50 [5]: > 100 µM (inactive)
GI50 [6]: > 100 µM (inactive)
GI50 [7]: > 100 µM (inactive)
GI50 [53]: > 100 µM (inactive)
GI50 [8]: > 100 µM (inactive)
GI50 [9]: > 100 µM (inactive)
GI50 [10]: > 100 µM (inactive)
GI50 [11]: > 100 µM (inactive)
GI50 [12]: > 100 µM
GI50 [13]: > 100 µM (inactive)
GI50 [14]: > 100 µM (inactive)
GI50 [15]: > 100 µM (inactive)
GI50 [54]: > 100 µM (inactive)
GI50 [17]: > 100 µM (inactive)
GI50 [18]: > 100 µM (inactive)
GI50 [19]: > 100 µM (inactive)
GI50 [20]: > 100 µM (inactive)
GI50 [21]: > 100 µM (inactive)
GI50 [22]: > 100 µM (inactive)
GI50 [23]: > 100 µM (inactive)
GI50 [24]: > 100 µM (inactive)
GI50 [55]: > 100 µM (inactive)
GI50 [26]: > 100 µM (inactive)
GI50 [27]: > 100 µM (inactive)
GI50 [28]: > 100 µM (inactive)
GI50 [29]: > 100 µM (inactive)
GI50 [56]: > 100 µM (inactive)
GI50 [30]: > 100 µM (inactive)
GI50 [31]: > 100 µM (inactive)
GI50 [32]: > 100 µM (inactive)
GI50 [33]: > 100 µM (inactive)
GI50 [34]: > 100 µM (inactive)
GI50 [35]: > 100 µM (inactive)
GI50 [36]: > 100 µM (inactive)
GI50 [57]: > 100 µM (inactive)
GI50 [37]: > 100 µM (inactive)
GI50 [38]: > 100 µM (inactive)
GI50 [39]: > 100 µM (inactive)
GI50 [40]: > 100 µM (inactive)
GI50 [41]: > 100 µM (inactive)
GI50 [42]: > 100 µM (inactive)
GI50 [43]: > 100 µM (inactive)
GI50 [44]: > 100 µM (inactive)
GI50 [45]: > 100 µM (inactive)
GI50 [46]: > 100 µM (inactive)
GI50 [47]: > 100 µM (inactive)
GI50 [48]: > 100 µM (inactive)
GI50 [49]: > 100 µM (inactive)
GI50 [50]: > 100 µM (inactive)

O=C1OC(c2ccccc2)(c2ccccc2)CC1CN1CCOCC1 (stereo not drawn)
GI50 [51]: 6.18 µM (inactive)
GI50 [1]: 13.5 µM (inactive)
GI50 [52]: 44.7 µM (inactive)
GI50 [2]: 15.6 µM (inactive)
GI50 [4]: 17.9 µM (inactive)
GI50 [5]: 29.3 µM (inactive)
GI50 [6]: 18.1 µM (inactive)
GI50 [7]: 18 µM (inactive)
GI50 [8]: 18.2 µM (inactive)
GI50 [9]: 24.2 µM (inactive)
GI50 [10]: 12.8 µM (inactive)
GI50 [11]: 15.9 µM (inactive)
GI50 [58]: 14.6 µM (inactive)
GI50 [12]: 16.1 µM
GI50 [14]: > 100 µM (inactive)
GI50 [15]: 25.6 µM (inactive)
GI50 [16]: 57.8 µM (inactive)
GI50 [54]: 12.5 µM (inactive)
GI50 [17]: 17.5 µM (inactive)
GI50 [18]: 60.7 µM (inactive)
GI50 [21]: 17.7 µM (inactive)
GI50 [22]: 33.7 µM (inactive)
GI50 [23]: 16.5 µM (inactive)
GI50 [24]: 17.1 µM (inactive)
GI50 [55]: 27.5 µM (inactive)
GI50 [25]: 38.2 µM (inactive)
GI50 [26]: > 100 µM (inactive)
GI50 [27]: 16.7 µM (inactive)
GI50 [28]: 16.7 µM (inactive)
GI50 [56]: 3.08 µM (inactive)
GI50 [30]: 14.2 µM (inactive)
GI50 [31]: 17.1 µM (inactive)
GI50 [32]: 5.07 µM (inactive)
GI50 [33]: 2.77 µM (inactive)
GI50 [59]: 10.2 µM (inactive)
GI50 [34]: 1.95 µM (inactive)
GI50 [36]: 18.5 µM (inactive)
GI50 [57]: 11.4 µM (inactive)
GI50 [37]: 5.98 µM (inactive)
GI50 [38]: 24.5 µM (inactive)
GI50 [39]: > 100 µM (inactive)
GI50 [40]: 25.4 µM (inactive)
GI50 [41]: 23.1 µM (inactive)
GI50 [42]: 6.61 µM (inactive)
GI50 [44]: 13.9 µM (inactive)
GI50 [45]: 13.9 µM (inactive)
GI50 [46]: 29.2 µM (inactive)
GI50 [47]: 26.5 µM (inactive)
GI50 [48]: 29 µM (inactive)
GI50 [49]: 20.6 µM (inactive)
GI50 [50]: 10.7 µM (inactive)

O=c1c2ccccc2c2c3c1cccc3c1cccc3c(=O)c4ccccc4c2c31
GI50 [51]: > 100 µM (inactive)
GI50 [1]: > 100 µM (inactive)
GI50 [52]: > 100 µM (inactive)
GI50 [2]: > 100 µM (inactive)
GI50 [4]: > 100 µM (inactive)
GI50 [5]: > 100 µM (inactive)
GI50 [6]: > 100 µM (inactive)
GI50 [7]: > 100 µM (inactive)
GI50 [53]: > 100 µM (inactive)
GI50 [8]: > 100 µM (inactive)
GI50 [9]: > 100 µM (inactive)
GI50 [10]: > 100 µM (inactive)
GI50 [11]: > 100 µM (inactive)
GI50 [58]: > 100 µM (inactive)
GI50 [12]: > 100 µM
GI50 [13]: > 100 µM (inactive)
GI50 [14]: > 100 µM (inactive)
GI50 [15]: > 100 µM (inactive)
GI50 [16]: > 100 µM (inactive)
GI50 [54]: > 100 µM (inactive)
GI50 [17]: > 100 µM (inactive)
GI50 [18]: > 100 µM (inactive)
GI50 [19]: > 100 µM (inactive)
GI50 [20]: > 100 µM (inactive)
GI50 [21]: > 100 µM (inactive)
GI50 [22]: > 100 µM (inactive)
GI50 [23]: > 100 µM (inactive)
GI50 [24]: > 100 µM (inactive)
GI50 [55]: > 100 µM (inactive)
GI50 [25]: > 100 µM (inactive)
GI50 [26]: > 100 µM (inactive)
GI50 [27]: > 100 µM (inactive)
GI50 [28]: > 100 µM (inactive)
GI50 [29]: > 100 µM (inactive)
GI50 [56]: > 100 µM (inactive)
GI50 [30]: > 100 µM (inactive)
GI50 [31]: > 100 µM (inactive)
GI50 [32]: > 100 µM (inactive)
GI50 [33]: > 100 µM (inactive)
GI50 [59]: > 100 µM (inactive)
GI50 [34]: > 100 µM (inactive)
GI50 [36]: > 100 µM (inactive)
GI50 [57]: > 100 µM (inactive)
GI50 [37]: > 100 µM (inactive)
GI50 [38]: 46.3 µM (inactive)
GI50 [39]: > 100 µM (inactive)
GI50 [40]: > 100 µM (inactive)
GI50 [41]: > 100 µM (inactive)
GI50 [42]: > 10 µM (inactive)
GI50 [43]: > 100 µM (inactive)
GI50 [44]: > 100 µM (inactive)
GI50 [45]: > 100 µM (inactive)
GI50 [46]: > 100 µM (inactive)
GI50 [47]: > 100 µM (inactive)
GI50 [48]: > 100 µM (inactive)
GI50 [49]: > 100 µM (inactive)
GI50 [50]: > 100 µM (inactive)
